Test [1] has as its target T1, recombinant human NE transporter (Homo sapiens, UniProt P23975).
T1 construct: host or cells: MDCK
The test is described as follows: Inhibition of [3H]norepinephrine uptake in MDCK cells transfected with the NE uptake transporter. It is filed as cell-based. How it is done: The ability of (1R,5S)-(+)-1-(naphthalen-2-yl)-3-azabicyclo[3.1.0]hexane for inhibiting transport of norepinephrine (NE) and/or dopamine (DA) and/or serotonin (5-HT) was evaluated using cell lines (such as the HEK 293 cell line) that stably express recombinant human NE, DA, and 5-HT transporters, respectively. Techniques for stably transfecting mammalian cell lines with neurotransmitter transporters and measuring the effects of drugs on amine uptake have been described in the literature (e.g., Eshleman A J, J Pharmacol Exp Ther 289:877-885, 1999) and are well known to those skilled in the art
Monoamine uptake was determined in MDCK, CHO-K1, and HEK-293 cell lines respectively transfected with NE, DA, and 5-HT uptake transporters by MDS Pharma Services (Taipei, Taiwan 112, R. O. C.). The cells were incubated in 5 mM Tris-HCl, and 7.5 mM HEPES buffer, pH 7.1, containing 120 mM NaCl, 5.4 mM KCl, 1.2 mM CaCl2, 1.2 mM MgSO4, 5 mM D-glucose, and 1 mM Ascorbic Acid. The cellular homogenates were incubated with radioligands and various concentrations of drugs for 10 minutes at 25° C. The [^3H]-radioligands incorporated into the cells were determined according to published methods using liquid scintillation counting (Perovic and Müller 1995; Eshleman et al., 1999). […]

The test system of test [2] is 6-OHDA-lesioned juvenile rats. The experiment in a line: Locomotor activity of juvenile rats with neonatal 6-OHDA lesions (model of ADHD). It is filed as in vivo, rat. The protocol: The behavioral effects of (1R,5S)-(+)-1-(naphthalen-2-yl)-3-azabicyclo[3.1.0]hexane were evaluated in a model of ADHD, which can be simulated in juvenile rates with neonatal 6-hydroxydopamine (6-OHDA) lesions (Davids et al., 2003). In this animal model, the NE neurons are protected from the neurotoxic effects of 6-OHDA by pretreatment with the NE transporter inhibitor desipramine, so the NE system is largely intact and can respond to NE transporter inhibitors (Davids et al., 2002). Furthermore, the 6-OHDA lesions produce learning and memory deficits in learning models including the T maze, and active and passive avoidance tasks (Shaywitz et al., 1978; Wool et al., 1987; Takasuna and Iwasaki, 1996). Performance in these learning and memory models was improved by administration of stimulants (Shaywitz et al., 1978; Wool et al., 1987). Thus, this model incorporates both hyperactivity and learning deficits found in ADHD.
Methods of lesioning neonatal rats with 6-OHDA were carried out as detailed in Zhang et al. (2001). Briefly, on postnatal day 1 (PD 1), male Sprague-Dawley rat pups were randomly assigned to a nursing dam (10/dam). On PD 5, pups receive a subcutaneous injection of 25 mg/kg desipramine hydrochloride to protect noradrenergic neurons, followed in 45 min. by randomly assigned intracisternal injection of vehicle or 6-OHDA hydrobromide (100 μg free base) under hypothermic anesthesia. Pups were returned to nursing dams immediately after the intracranial injections. Locomotor activity was monitored individually for 90 min. in the periadolescent period on PD 25, using a microcomputer controlled infrared photobeam activity monitoring system. Locomotor activity was defined as breaking of consecutive photobeams and the activity accumulated in 5 minute bins. Behavioral testing was conducted in a novel environment (transparent plastic cages containing fresh bedding) within a grid of horizontal infrared beams. Each dose of (1R,5S)-(+)-1-(naphthalen-2-yl)-3-azabicyclo[3.1.0]hexane (1, 3 and 10 mg/kg) or methylphenidate (3 mg/kg) was dissolved in saline and given i.p. immediately prior to testing. The effects of sham versus 6-OHDA lesions on dopamine neurons in rats were quantified as decrements of DA transporters labeled with [31-1]2-(3-carbomethoxy-3-β-[4′-iodophenyl]tropane ([^3H]β-CIT), a selective DA transporter radioligand (Kula et al. 1999). Sections were preincubated (60 min., room temp [RT]) in 50 mM Tris-HCl buffer (pH 7.7) containing 120 mM NaCl and 4 mM MgCl2, then in fresh buffer (60 min) containing 2 nM [3H](3-CIT. Nonspecific binding was defined with 1 μM GBR-12909. Slides were then washed (2×5 min) in ice-cold buffer, dipped in ice-cold water, and air-dried. Radiolabeled slides and calibrated [^3H]standards were exposed to [^3H]sensitive films for 10-14 d at 4° C. Tritium-sensitive Hyperfilms were developed and fixed in Kodak D-19 for 5 min. at RT. Images were quantified with a computer-controlled MCID image analyzer. Brain regions of interest were outlined and their optical density was measured with two sections representing total binding, with two samples representing nonspecific binding. Optical density of sampled regions was measured and the amount of ligand bound within each area was calculated as nCi/mg tissue. Mean values of non-specific binding in each region were subtracted from the mean total binding to determine specific binding, which was converted into fmol/mg of radioligand bound.

The subject of test [3] is male CD-1 (Crl.) derived mice. The test is described as follows: Mouse tail suspension test. It counts as in vivo. The protocol:
The behavioral effects of (1R,5S)-(+)-1-(naphthalen-2-yl)-3-azabicyclo[3.1.0]hexane were evaluated in a model predictive of antidepressant activity, the mouse tail suspension test (Cryan and Mombereau, 2004).
For the tail test suspension test, male CD-1 (Crl.) derived mice weighing 20-26 g were provided by BioLasco Taiwan (Charles River Laboratories Technology Licensee). All animals were maintained in a controlled temperature (23° C.-24° C.) and humidity (60%-70%) environment with 12 hours light dark cycles for at least one week prior to use. For the tail suspension test, (1R,5S)-(+)-1-(naphthalen-2-yl)-3-azabicyclo[3.1.0]hexane was administered orally at dose from 10-40 mg/kg p.o. to groups of 10 CD-1 derived male mice by MDS Pharma Services, Taipei, Taiwan 112, R. O. C. (1R,5S)-(+)-1-(naphthalen-2-yl)-3-azabicyclo[3.1.0]hexane was dissolved in 2% Tween 80 and was administered at 10 ml/kg 60 minutes prior to the tail suspension test. During the test, the mice were suspended on the edge of a shelf 58 cm above a table top by adhesive tape placed approximately 1 cm from the tip of the tail. The duration of immobility was recorded for a period of 5 minutes (during 2-7 minutes of the tail suspension). The duration of the effects of (1R,5S)-(+)-1-(naphthalen-2-yl)-3-azabicyclo[3.1.0]hexane was also evaluated in the tail suspension test by varying pretreatment time.

pIC50: −log10 of the molar value.

T1 sequence (P23975 whole entry): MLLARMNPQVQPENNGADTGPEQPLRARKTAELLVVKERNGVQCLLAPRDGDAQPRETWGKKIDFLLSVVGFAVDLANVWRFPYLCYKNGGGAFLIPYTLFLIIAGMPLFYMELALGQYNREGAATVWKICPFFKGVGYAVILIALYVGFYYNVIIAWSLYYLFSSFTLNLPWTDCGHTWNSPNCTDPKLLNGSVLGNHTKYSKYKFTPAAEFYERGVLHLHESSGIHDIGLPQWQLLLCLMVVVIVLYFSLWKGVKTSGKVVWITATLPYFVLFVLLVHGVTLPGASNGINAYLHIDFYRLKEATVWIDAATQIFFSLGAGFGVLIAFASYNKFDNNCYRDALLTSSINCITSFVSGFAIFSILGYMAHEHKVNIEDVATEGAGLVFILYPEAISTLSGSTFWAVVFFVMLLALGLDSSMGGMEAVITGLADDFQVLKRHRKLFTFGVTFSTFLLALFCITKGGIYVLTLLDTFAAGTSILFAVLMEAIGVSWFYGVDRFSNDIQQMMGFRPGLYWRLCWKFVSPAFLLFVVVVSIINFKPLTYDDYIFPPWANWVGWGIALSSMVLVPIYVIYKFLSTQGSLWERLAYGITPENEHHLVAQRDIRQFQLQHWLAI

Take `c1ccc2cc([C@]34CNC[C@H]3C4)ccc2c1` [(1R,5S)-(+)-1-(naphthalen-2-yl)-3-azabicyclo[3.1.0]hexane]: the pIC50 in test [1] was 8.22. Also, the “time over which locomotor activity was significantly reduced” value amounted to 35 min in test [2] (1 mg/kg i.p., PD 25, 90 min test, vs saline) and 90 min in test [2] (10 mg/kg i.p., PD 25, 90 min test). For the same compound, the “time over which locomotor hyperactivity was significantly attenuated” value in test [2] (3 mg/kg i.p., PD 25, 90 min test) came to 45 min. In addition, the “effect on locomotor hyperactivity” value in test [2] (1, 3 and 10 mg/kg i.p.) was “dose-dependently inhibited the locomotor hyperactivity”. The “locomotor activity (FIGS. 7A and 7B)” value in test [2] (6-OHDA-lesioned juvenile rats at PD25, p<0.05 versus vehicle) is reported as “reduced locomotor activity”. Further, the immobility in test [3] (20 mg/kg p.o., at 30 minutes) is given as 84 % of control; in test [3] (20 mg/kg p.o., at 60 minutes), 82 % of control; in test [3] (20 mg/kg p.o., at 120 minutes) it was 75 % of control; in test [3] (20 mg/kg p.o., at 240 minutes), 47 % of control; in test [3] (40 mg/kg p.o., 60 minutes prior to test) it was 87 % of control. Also, the duration of effect entry in test [3] (oral) is given as “over 4 hours”. Further, the “efficacy compared with desipramine (30 mg/kg p.o.)” value in test [3] (oral) is reported as “equivalent to the tricyclic antidepressant desipramine”. Besides, in test [3] (oral, 60 minutes prior to test), the “minimal effective dose for reducing time immobilized” value is reported as 20 mg/kg.
